The target of test [1] is T1, raf1 with inactive MEK1 (Raf1-MEK1) (Homo sapiens, UniProt P04049).
T1 construct: purchased Upstate, Lake Placid, N.Y
Kind of test: Raf1-MEK1 assay (KinaseGlo). The format is biochemical. Conditions: for IC50: Raf-Mek, 3 uM ATP, read-out: RAF-MEK assay (biochemical assay). On the technique in general: In Kinase-Glo more light means more ATP remaining.

The subject of test [2] is p-MEK and p-ERK levels in HUVECs. Kind of test: Western Blot, inhibition of MAPK pathway in cellular assay (Example 27). It counts as cell-based, human. Conditions: for Western Blot: at 5 uM, 50 ng/ml VEGF or FGF. Here is the method: (§1) Western Blot: Early passage primary human umbilical vein endothelial cells (HUVECs) were maintained in EGM-2 containing SingleQuots (Cambrex, East Rutherford, N.J.), 10% FBS, 10 mM HEPES, and 50 μg/ml gentamicin. Prior to treatment of the cells with inhibitor, the HUVECs were starved for 18 h by replacing serum-containing complete media with scrum-free and SingleQuot-free media. The starved cells were pre-treated with inhibitors for 60 min at various concentrations (0-20 μM). Next the HUVECs were treated with 50 ng/ml VEGF or FGF (Peprotech, Rocky Hill, N.J.) for 6 min and the cells were immediately washed with ice-cold PBS. Cells were lysed with ice-cold RIPA buffer containing 100 mM Tris pH 7.5, 150 mM NaCl, 1 mM EDTA, 1% deoxycholate, 1% Triton X-100, 0.1% SDS, 2 mM PMSF, one Complete-Mini protease inhibitor tablet (Roche, Indianapolis, Ind.; 1 tablet/7 ml of lysis buffer) and the phophatase inhibitors NaF (500 mM) and orthovanadate (1 mM). The cells were scraped and lysates transferred and centrifuged at 15,000 g for 10 min. Supernatants were transferred to new tubes and protein concentration was quantitated using the BCA protein reagent (Pierce, Rockford, Ill.). Cell lysates containing 20 μg of total protein were separated by 10% SDS-PAGE, transferred to nitrocellulose, and blocked in 5% milk in TBST. Anti phospho-ERK Thr 202/Tyr 204 (Cell Signaling, Beverly, Mass.), anti-phospho-MEK Ser217/221 (Cell Signaling), and c-Raf (BD Biosciences Pharmingen, San Diego, Calif.) used as primary antibodies were detected with horseradish peroxidase-conjugated goat anti-mouse or rabbit secondary antibodies and bands were visualized using the SuperSignal West Pico chemiluminescence reagent system (Pierce) and Kodak X-ray film (Rochester, N.Y.).

Test [3] shares this test system. Kind of test: Western Blot, inhibition of MAPK pathway in cellular assay (Example 105). It counts as cell-based, human. As to conditions: for Western Blot: 50 ng/ml VEGF or FGF. Here is the method: as §1, with “Some compounds described by the general structure (B) were tested for inhibition of MAPK pathway in cellular assay. Western” for “Western”, “serum-free” for “scrum-free”, “main.” for “min.”
(Immunoblotting shows a protein as a band on a membrane.)

The subject of another test is HUVECs. Kind of test: XTT cell viability assay (Example 106). The format is cell-based, human. As to conditions: 72 hours, read-out: Inhibition of HUVEC cell prolifiration (IC50). Here is the method:
Some compounds described by the general structure (B) were tested for cell viability. XTT assay: HUVECs were seeded at 10,000 cells/well of a tissue culture treated 96-well plate treated with collagen type I and grown overnight in the complete EGM-2 media as described above. The following morning, the inhibitors were serial diluted with DMSO and added to the cells with a final DMSO concentration of 1%. After 72 hours cell viability was measured with an XTT assay (Sigma, St. Louis, Mo.). The cells were also photographed to compare morphological differences to the XTT trends observed. Determination of the IC50 values was performed with quantitative software (Prism software package, GraphPad Software, San Diego Calif.).
For orientation: Tetrazolium dyes change colour on reduction, which living cells bring about.

[4] abbreviates: Homo sapiens, HUVEC, VEGF or FGF, read-out: reduction in p-Erk levels, IC50.

Counter-ions that a name gives are not always drawn. Like-named read-outs stand apart in the source and are kept apart here. Bounds are passed on as bounds.

T1 sequence (P04049 306-648 limits assumed): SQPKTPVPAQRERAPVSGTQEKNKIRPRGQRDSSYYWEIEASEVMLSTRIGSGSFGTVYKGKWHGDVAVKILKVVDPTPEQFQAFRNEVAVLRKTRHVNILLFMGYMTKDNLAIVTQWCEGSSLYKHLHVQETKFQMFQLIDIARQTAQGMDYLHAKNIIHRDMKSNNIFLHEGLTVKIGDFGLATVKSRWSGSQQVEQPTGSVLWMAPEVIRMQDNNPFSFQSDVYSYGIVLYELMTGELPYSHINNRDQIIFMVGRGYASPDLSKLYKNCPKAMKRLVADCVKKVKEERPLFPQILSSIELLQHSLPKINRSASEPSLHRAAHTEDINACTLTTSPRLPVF

Consider `CNC(=O)c1cc(Oc2ccc3nc(NS(=O)(=O)c4ccc(Cl)s4)nnc3c2)ccn1` [4-[3-(5-chloro-thiophene-2-sulfonylamino)-benzo[1,2,4]triazin-7-yloxy]-pyridine-2-carboxylic acid methyl amide trifluoroacetate salt], for which, in test [1], the IC50 was over 50 µM. In addition, the “Western Blot” value in test [2] is reported as “not active at 5 uM”.

As for `CNC(=O)c1cc(Oc2ccc3nc(NC(=O)c4cc(C(F)(F)F)cc(Cl)c4F)nnc3c2)ccn1` [4-[2-fluoro-3-chloro-5-trifluoromethyl-benzoylamino)-benzo[1,2,4]triazin-7-yloxy]-pyridine-2-carboxylic acid methyl amide trifluoroacetate salt], the IC50 in test [1] turned out to be 0.723 µM. Further, the window in test [1] (window) is listed as about 30%. For the same compound, the “Western Blot” value in test [2] is recorded as “not active at 5 uM”.

As to `CNC(=O)c1cc(Oc2ccc3nc(NC(=O)c4ccc(Cl)c(C(F)(F)F)c4)nnc3c2)ccn1` [4-[3-(4-chloro-3-trifluoromethyl-benzoylamino)-benzo[1,2,4]triazin-7-yloxy]pyridine-2-carboxylic acid meth amide trifluoroacetate salt], the IC50 in test [1] lay within 10 to 50 µM. In addition, the “Western Blot” value in test [2] is “not active at 5 uM”.

For `CNC(=O)c1cc(Oc2ccc3nc(NS(=O)(=O)c4ccccc4C(F)(F)F)nnc3c2)ccn1` [4-[2-(trifluoromethyl-benzenesulfonylamino)-benzo[1,2,4]triazin-7-yloxy]-pyridine-2-carboxylic acid methyl amide trifluoroacetate salt], the “RAF-MEK assay (biochemical assay), result in words” value in test [1] was “flat”. The “Western Blot” value in test [2] is recorded as “not active at 5 uM”.

On to `CNC(=O)c1cc(Oc2ccc3nc(NC(=O)c4ccc(Cl)cc4Cl)nnc3c2)ccn1` [4-[2,4-dichloro-benzoylamino)-benzo[1,2,4]triazin-7-yloxy]-pyridine-2-carboxylic acid methyl amide trifluoroacetate salt], for which, in test [1], the “RAF-MEK assay (biochemical assay), result in words” value is “flat”. Besides, the “Western Blot” value in test [2] was “not active at 5 uM”.

As for `CNC(=O)c1cc(Oc2ccc3nc(NS(=O)(=O)c4cc(C(F)(F)F)ccc4Cl)nnc3c2)ccn1` [4-[2-chloro-5-(trifluoromethyl-benzenesulfonylamino)-benzo[1,2,4]triazin-7-yloxy]-pyridine-2-carboxylic acid methyl amide trifluoroacetate salt], the “Western Blot” value in test [2] was “not active at 5 uM”.

Take `N#CC(=C(/N)Sc1ccccc1N)/C(C#N)=C(\N)Sc1ccccc1N` [Example U0126, reference compound]: the IC50 in test [3] (setting [4]) and in test [2] (setting [4]) was 0.2 to 0.3 µM each time. The p-MEK levels result in test [3] (VEGF or FGF) and in test [2] (VEGF or FGF) was “unaffected” each time.

With `O=C(Nc1ccc(OC(F)(F)F)cc1)Nc1nnc2cc(Oc3ccnc(C(=O)NCCN4CCOCC4)c3)ccc2n1` [4-{3-[3-(4-Trifluoromethoxy-phenyl)-ureido]-benzo[1,2,4]triazin-7-yloxy}-pyridine-2-carboxylic acid (2-morpholin-4-yl-ethyl)-amide], the “Western Blot” value in test [2] was “not active at 5 uM”.

In the case of `CN(C)C(=O)c1cc(Oc2ccc3nc(N(C)C(=O)c4ccc(OC(F)(F)F)cc4)nnc3c2)ccn1` [4-{3-[Methyl-(4-trifluoromethoxy-benzoyl)-amino]-benzo[1,2,4]triazin-7-yloxy}-pyridine-2-carboxylic acid dimethyl amide], the “Western Blot” value in test [2] is listed as “partially active at 5 uM”.

For the compound `FC(F)(F)c1cc(Nc2nnc(-c3ccc(Oc4ccncc4)cc3)o2)ccc1Cl` [N-[4-chloro-3-(trifluoromethyl)phenyl]-5-[4-(pyridin-4-yloxy)phenyl]-1,3,4-oxadiazol-2-amine trifluoroacetate salt], the IC50 in the test with HUVECs (Homo sapiens, HUVEC) is 8.6 µM. In addition, the “Western Blot” value in test [3] (at 5 uM) was “active at 5 uM”.

For the compound `FC(F)(F)c1cc(Nc2nnc(-c3cccc(Oc4ccncc4)c3)[nH]2)ccc1Cl` [(4-chloro-3-trifluoromethyl-phenyl)-{5-[3-(pyridin-4-yloxy)-phenyl]-4H-[1,2,4]triazol-3-yl}-amine trifluoroacetic acid salt], the IC50 with HUVECs (Homo sapiens, HUVEC) amounted to 1.79 µM. Besides, in test [3] (at 5 uM), the “Western Blot” value is reported as “active at 5 uM”.

With `COc1ccc(C(=O)Nc2nnc(-c3ccc(Oc4cccnc4)cc3)o2)cc1C(F)(F)F` [4-methoxy-N-{5-[4-(pyridin-3-yloxy)phenyl]-1,3,4-oxadiazol-2-yl}-3-(trifluoromethyl)-benzamide], in the test with HUVECs (Homo sapiens, HUVEC), the IC50 was over 40 µM. Besides, in test [3] (at 10 uM), the “Western Blot” value was “active at 10 uM”.

As for `FC(F)(F)c1cc(Nc2nnc(-c3ccc(Oc4cncnc4)cc3)o2)ccc1Cl` [N-[4-chloro-3-(trifluoromethyl)phenyl]-5-[4-(pyrimidin-5-yloxy)phenyl]-1,3,4-oxadiazol-2-amine trifluoroacetate salt], in the test with HUVECs (Homo sapiens, HUVEC), the IC50 is 9.65 µM. The “Western Blot” value in test [3] (at 5 uM) is listed as “active at 5 uM”.

Take `O=C(Nc1nnc(-c2ccc(Oc3cccnc3)cc2)o1)c1ccc(OC(F)(F)F)cc1` [N-{5-[4-(pyridine-3-yloxy)phenyl]-1,3,4-oxadiazol-2-yl}-4-(trifluoromethoxy)benzamide]: the IC50 in the test on HUVECs (Homo sapiens, HUVEC) is over 40 µM. For the same compound, the “Western Blot” value in test [3] (at 10 uM) is on record as “not active at 10 uM”.

As for `CNC(=O)c1cc(Oc2ccc3nc(NC(=O)c4cc(C(F)(F)F)ccc4Cl)nnc3c2)ccn1` [4-[2-chloro-3-trifluoromethyl-benzoylamino)-benzo[1,2,4]triazin-7-yloxy]-pyridine-2-carboxylic acid methyl amide trifluoroacetate salt], the “Western Blot” value in test [2] is “not active at 5 uM”.

Regarding `O=C(Nc1nnc(-c2ccc(Oc3cccnc3)cc2)o1)c1ccc(Br)cc1` [4-Bromo-N-{5-[4-(pyridin-3-yloxy)phenyl]-1,3,4-oxadiazol-2-yl}-benzamide], the IC50 with HUVECs (Homo sapiens, HUVEC) is over 40 µM. Moreover, in test [3] (at 10 uM), the “Western Blot” value is given as “not active at 10 uM”.

On to `Nc1cc(Oc2ccc(Nc3nnc(-c4ccc(OC(F)(F)F)cc4)[nH]3)cc2)nc(N)n1` [6-[4-({5-[4-(trifluoromethoxy)-phenyl-4H-1,2,4-triazol-3-yl}amino)phenoxy]pyrimidine-2,4-diamine], for which the IC50 in the test on HUVECs was found to be 6.58 µM. In addition, the “Western Blot” value in test [3] (concentration not given) is “not active”.

In the case of `FC(F)(F)c1cccc(Nc2nnc(-c3ccc(Oc4cccnc4)cc3)o2)c1` [5-[4-(Pyridin-3-yloxy)phenyl]-N-[3-trifluoromethyl-phenyl]-1,3,4-oxadiazol-2-amine], in the test on HUVECs (Homo sapiens, HUVEC), the IC50 was over 20 µM. In addition, the “Western Blot” value in test [3] (at 10 uM) was “active at 10 uM”.

(Values after patent US8372971B2, “Heterocyclic compounds and methods of use” (TargeGen, Inc., priority 2004, dated 2013).)
